Source: patent publication US6627651B1, “Cyclic compounds and uses thereof” (Takeda Chemical Industries, Ltd., priority 1999, dated 2003)

System: not given
Assay: not given
Conditions: not given

Row | SMILES | melting point
1 | CCCOc1ccccc1COc1ccc2c(c1)C=C(C(=O)Nc1ccc(CN(C)C3CCOCC3)cc1)CCS2(=O)=O [Compound 21, N-[4-[N-methyl-N-(tetrahydropyran-4-yl)aminomethyl]phenyl]-7-[(2-propoxybenzyl)oxy]-1,1-dioxo-2,3-dihydro-1-benzothiepine-4-carboxamide] | 190 to 192 °C
2 | Cc1ccc(-c2ccc3c(c2)C=C(C(=O)NC2CCN(C4CCOCC4)CC2)CCO3)cc1 [Compound 56, N-(1-(tetrahydropyran-4-yl)piperidin-4-yl)-7-(4-methylphenyl)-2,3-dihydro-1-benzooxepine-4-carboxamide] | 199 to 204 °C (dec.)
3 | CCOCCOc1ccc(COc2ccc3c(c2)C=C(C(=O)Nc2ccc(CN(C)C4CCOCC4)cc2)CCS3(=O)=O)cc1 [Compound 107, N-[4-[[N-methyl-N-(tetrahydropyran-4-yl)amino]methyl]phenyl]-7-[[4-(2-ethoxyethoxy)benzyl]oxy]-1,1-dioxo-2,3-dihydro-1-benzothiepine-4-carboxamide] | 185 to 187 °C
4 | CCCOCCOc1ccc(COc2ccc3c(c2)C=C(C(=O)Nc2ccc(CN(C)C4CCOCC4)cc2)CCS3(=O)=O)cc1 [Compound 108, N-[4-[[N-methyl-N-(tetrahydropyran-4-yl)amino]methyl]phenyl]-7-[[4-(2-propoxyethoxy)benzyl]oxy]-1,1-dioxo-2,3-dihydro-1-benzothiepine-4-carboxamide] | 175 to 176 °C
5 | CCCOCCOc1ccc(COc2ccc3c(c2)C=C(C(=O)Nc2ccc(CN(C)C4CCOCC4)cc2)CCS3(=O)=O)cc1OCC [Compound 110, 7-[[3-ethoxy-4-(2-propoxyethoxy)benzyl]oxy]-N-[4-[[N-methyl-N-(tetrahydropyran-4-yl)amino]methyl]phenyl]-1,1-dioxo-2,3-dihydro-1-benzothiepine-4-carboxamide] | 146 to 147 °C
6 | CCCOc1ccc(Oc2ccc3c(c2)C=C(C(=O)Nc2ccc(CN(C)C4CCOCC4)cc2)CCS3(=O)=O)cc1 [Compound 111, N-[4-[[N-methyl-N-(tetrahydropyran-4-yl)amino]methyl]phenyl]-7-(4-propoxyphenoxy)-1,1-dioxo-2,3-dihydro-1-benzothiepine-4-carboxamide] | 139 to 141 °C
7 | CCCOc1cccc(Oc2ccc3c(c2)C=C(C(=O)Nc2ccc(CN(C)C4CCOCC4)cc2)CCS3(=O)=O)c1 [Compound 112, N-[4-[[N-methyl-N-(tetrahydropyran-4-yl)amino]methyl]phenyl]-7-(3-propoxyphenoxy)-1,1-dioxo-2,3-dihydro-1-benzothiepine-4-carboxamide] | 143 to 144 °C
8 | CCCc1ccc(Oc2ccc3c(c2)C=C(C(=O)Nc2ccc(CN(C)C4CCOCC4)cc2)CCS3(=O)=O)cc1 [Compound 113, N-[4-[[N-methyl-N-(tetrahydropyran-4-yl)amino]methyl]phenyl]-7-(4-propylphenoxy)-1,1-dioxo-2,3-dihydro-1-benzothiepine-4-carboxamide] | 147 to 149 °C
9 | CCCOCCOc1ccc(Oc2ccc3c(c2)C=C(C(=O)Nc2ccc(CN(C)C4CCOCC4)cc2)CCS3(=O)=O)cc1OCC [Compound 114, 7-[3-ethoxy-4-(2-propoxyethoxy)phenoxy]-N-[4-[[N-methyl-N-(tetrahydropyran-4-yl)amino]methyl]phenyl]-1,1-dioxo-2,3-dihydro-1-benzothiepine-4-carboxamide] | 159 to 160 °C
10 | CCCOCc1ccccc1Oc1ccc2c(c1)C=C(C(=O)Nc1ccc(CN(C)C3CCOCC3)cc1)CCS2(=O)=O [Compound 115, N-[4-[[N-methyl-N-(tetrahydropyran-4-yl)amino]methyl]phenyl]-7-(2-propoxymethylphenoxy)-1,1-dioxo-2,3-dihydro-1-benzothiepine-4-carboxamide] | 162 to 164 °C
11 | COc1cccc(COc2ccc3c(c2)C=C(C(=O)Nc2ccc(CN(C)C4CCOCC4)cc2)CCS3(=O)=O)c1 [Compound 117, 7-(3-methoxybenzyloxy)-N-[4-[[N-methyl-N-(tetrahydropyran-4-yl)amino]methyl]phenyl]-1,1-dioxo-2,3-dihydro-1-benzothiepine-4-carboxamide] | 181 to 185 °C
12 | CCOc1cccc(COc2ccc3c(c2)C=C(C(=O)Nc2ccc(CN(C)C4CCOCC4)cc2)CCS3(=O)=O)c1 [Compound 118, 7-(3-ethoxybenzyloxy)-N-[4-[[N-methyl-N-(tetrahydropyran-4-yl)amino]methyl]phenyl]-1,1-dioxo-2,3-dihydro-1-benzothiepine-4-carboxamide] | 189 to 192 °C
13 | CCCOc1ccccc1CCCOc1ccc2c(c1)C=C(C(=O)Nc1ccc(CN(C)C3CCOCC3)cc1)CCS2(=O)=O [Compound 119, N-[4-[[N-methyl-N-(tetrahydropyran-4-yl)amino]methyl]phenyl]-7-[3-(2-propoxyphenyl)propoxy]-1,1-dioxo-2,3-dihydro-1-benzothiepine-4-carboxamide] | 184 to 186 °C
14 | CCCOc1ccc(CCCOc2ccc3c(c2)C=C(C(=O)Nc2ccc(CN(C)C4CCOCC4)cc2)CCS3(=O)=O)cc1 [Compound 121, N-[4-[[N-methyl-N-(tetrahydropyran-4-yl)amino]methyl]phenyl]-7-[3-(4-propoxyphenyl)propoxy]-1,1-dioxo-2,3-dihydro-1-benzothiepine-4-carboxamide] | 178 to 181 °C
15 | CCOc1ccc(COc2ccc3c(c2)C=C(C(=O)Nc2ccc(CN(C)C4CCOCC4)cc2)CCS3(=O)=O)cc1OCC [Compound 122, N-[4-[[N-methyl-N-(tetrahydropyran-4-yl)amino]methyl]phenyl]-7-(3,4-diethoxybenzyloxy)-1,1-dioxo-2,3-dihydro-1-benzothiepine-4-carboxamide] | 186 to 188 °C
16 | CCOCCCc1ccc(Oc2ccc3c(c2)C=C(C(=O)Nc2ccc(CN(C)C4CCOCC4)cc2)CCS3(=O)=O)cc1 [Compound 125, 7-[4-(3-ethoxypropyl)phenoxy]-N-[4-[[N-methyl-N-(tetrahydro-2H-pyran-4-yl)amino]methyl]phenyl]-1,1-dioxo-2,3-dihydro-1-benzothiepine-4-carboxamide] | 156 to 157 °C
17 | CCOCCOc1c(C)cc(Oc2ccc3c(c2)C=C(C(=O)Nc2ccc(CN(C)C4CCOCC4)cc2)CCS3(=O)=O)cc1C [Compound 126, 7-[4-(2-ethoxyethoxy)-3,5-dimethylphenoxy]-N-[4-[[N-methyl-N-(tetrahydro-2H-pyran-4-yl)amino]methyl]phenyl]-1,1-dioxo-2,3-dihydro-1-benzothiepine-4-carboxamide] | 111 to 113 °C

Target: T1, human CCR5 (Homo sapiens, UniProt P51681)
T1 construct: expressed in transfected cells
Assay: CCR5-binding inhibition: [125I]-RANTES binding to CHO/CCR5 cells
Conditions: test compound 1 μM; ligand [125I]-RANTES 100 pM; CHO/CCR5 strains; room temperature, 30 minutes
Experimental: After CHO-K1 cells, which were grown in a 750-ml, tissue culture flask (Beckton, Dickinson and Company) using Ham F12 medium (Nihon Pharmaceutical Co., Ltd.) containing 10% fetal calf serum (Life Technologies Oriental, Inc.), were removed from the flask with 0.5/L trypsin-0.2 g/L EDTA (Life Technologies Oriental, Inc.), the cells were washed with PBS (Life Technologies Oriental, Inc.), were centrifuged (1000 rpm, 5 minutes) and were suspended in PBS. Next, DNA was introduced into the cells by the use of Gene Pulser (Bio-Rad Laboratories Inc.) under the following conditions. In other words, 8×10^6 cells and 10 μg human CCR5 expression plasmid pCKR5 were added into a cuvette with a 0.4-cm gap, and the cells were electroporated at 0.25 kV under a capacitance of 960 μF. Subsequently, the cells were transferred to Ham F12 medium containing 10% fetal calf serum, and were cultivated for 24 hours. The cells were then removed from the flask again for centrifugation, were then suspended in Ham F12 medium containing 10% fetal serum albumin containing geneticin (Life Technologies Oriental, Inc.) at a final concentration of 500 μg/ml, were diluted to 10^4 cells/ml and were seeded into 96-well plates (Beckton, Dickinson and Company) to obtain geneticin-resistant strains.
Next, after the thus-obtained geneticin-resistant strains were cultivated in a 96-well plate (Beckton, Dickinson and Company), cells expressing CCR5 were selected from the resistant strains. In other words, the binding reaction was carried out at room temperature for 40 minutes in an assay buffer (Ham F12 medium containing 0.5% BSA and 20 mM HEPES (Wako Pure Chemical Industries, Ltd.)) that is supplemented with 200 pM [^125I]-RANTES (Amersham plc) as a ligand, and the cells were washed with ice-cold PBS, were then stirred after adding 50 μl/well of 1M NaOH and were counted for radioactivity in a γ-counter to select CHO/CCR5 strains, the cells to which the ligand was specifically bound.
CHO/CCR5 strains were seeded into 96-well microplates at a density of 5×10^4 cells/well, and were cultivated for 24 hours. After the culture fluid was removed by suction, the assay buffer containing a test compound (1 μM) was added to each well, and a ligand [^125I]-RANTES (Amersham Corporation) was added to a final concentration of 100 pM, after which the reaction was carried out at room temperature for 30 minutes. Next, after the assay buffer was removed by suction, the cells were washed twice with ice-cold PBS. Subsequently, 200 μl of MicroScint-20 (Packard Industry Company, Inc.) was added to each well, which was counted for radioactivity in a Top Count (Packard Industry Company, Inc.).
Percentages of CCR5-binding inhibition by test compounds were determined according to the method described above.

T1 sequence (P51681 whole entry): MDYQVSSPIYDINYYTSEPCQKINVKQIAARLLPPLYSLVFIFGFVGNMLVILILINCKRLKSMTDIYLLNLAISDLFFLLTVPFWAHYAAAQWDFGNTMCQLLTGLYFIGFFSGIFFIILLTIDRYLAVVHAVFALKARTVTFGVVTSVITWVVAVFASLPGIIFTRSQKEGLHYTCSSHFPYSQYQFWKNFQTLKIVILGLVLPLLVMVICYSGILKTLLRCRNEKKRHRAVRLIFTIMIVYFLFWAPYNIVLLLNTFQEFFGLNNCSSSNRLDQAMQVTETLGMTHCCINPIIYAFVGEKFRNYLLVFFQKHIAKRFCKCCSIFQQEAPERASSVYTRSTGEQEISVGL

Row | SMILES | Inhibition of binding (%) | inhibition at 1 µM [%]
18 | CCCOc1ccc(CCOc2ccc3c(c2)C=C(C(=O)Nc2ccc(CN(C)C4CCOCC4)cc2)CCS3(=O)=O)cc1 [Compound 19, N-[4-[N-methyl-N-(tetrahydropyran-4-yl)aminomethyl]phenyl]-7-[4-(propoxyphenethyl)oxy]-1,1-dioxo-2,3-dihydro-1-benzothiepine-4-carboxamide] | 86 | –
19 | CCCOc1cccc(COc2ccc3c(c2)C=C(C(=O)Nc2ccc(CN(C)C4CCOCC4)cc2)CCS3(=O)=O)c1 [Compound 20] | 94 | –
20 | CCCOc1ccccc1COc1ccc2c(c1)C=C(C(=O)Nc1ccc(CN(C)C3CCOCC3)cc1)CCS2(=O)=O [Compound 21, N-[4-[N-methyl-N-(tetrahydropyran-4-yl)aminomethyl]phenyl]-7-[(2-propoxybenzyl)oxy]-1,1-dioxo-2,3-dihydro-1-benzothiepine-4-carboxamide] | – | 98
21 | Cc1ccc(-c2ccc3c(c2)C=C(C(=O)NC2CCN(C4CCOCC4)CC2)CCO3)cc1 [Compound 56, N-(1-(tetrahydropyran-4-yl)piperidin-4-yl)-7-(4-methylphenyl)-2,3-dihydro-1-benzooxepine-4-carboxamide] | – | 74
22 | Cc1ccc(-c2ccc3c(c2)C=C(C(=O)Nc2ccc(CC4=NCCN4)cc2)CCO3)cc1 [Compound 94] | 76 | –
23 | CCCOc1ccc(COc2ccc3c(c2)C=C(C(=O)Nc2ccc(CN(C)C4CCOCC4)cc2)CCS3(=O)=O)cc1 [Compound 100] | 89 | –
24 | CCCOCCOc1ccc(COc2ccc3c(c2)C=C(C(=O)Nc2ccc(CN(C)C4CCOCC4)cc2)CCS3(=O)=O)cc1 [Compound 108, N-[4-[[N-methyl-N-(tetrahydropyran-4-yl)amino]methyl]phenyl]-7-[[4-(2-propoxyethoxy)benzyl]oxy]-1,1-dioxo-2,3-dihydro-1-benzothiepine-4-carboxamide] | – | 86
25 | CCCOc1ccc(CCCOc2ccc3c(c2)C=C(C(=O)Nc2ccc(CN(C)C4CCOCC4)cc2)CCS3(=O)=O)cc1 [Compound 121, N-[4-[[N-methyl-N-(tetrahydropyran-4-yl)amino]methyl]phenyl]-7-[3-(4-propoxyphenyl)propoxy]-1,1-dioxo-2,3-dihydro-1-benzothiepine-4-carboxamide] | – | 82
